Test results taken from PubChem BioAssay AID330 (DTP/NCI, 2004).
Values joined by “and” are separate entries in the source; they are usually repeats but may differ in a detail not shown here. Equal values may be shown once. Toxic doses and inconclusive results are not listed.

System: P388 leukemia ip, CD2F1 mice, survival T/C
Test: NCI In Vivo Anticancer Drug Screen. Data for tumor model P388 Leukemia (intraperitoneal) in CD2F1 (CDF1) mice
Settings: endpoint: median survival time, higher = longer survival
Procedure, shortened: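 Mice carrying the transplanted tumor received test compound or vehicle. Survival was recorded in each group, and the value is the treated-group measurement divided by that of the vehicle-treated control group.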

[1] = dose: 25.0 mg/kg/injection, schedule: Q01DX005 (ip), vehicle: saline with Tween-80
[2] = dose: 50.0 mg/kg/injection, schedule: Q01DX005 (ip), vehicle: saline with Tween-80
[3] = dose: 100.0 mg/kg/injection, schedule: Q01DX005 (ip), vehicle: saline with Tween-80
[4] = dose: 200.0 mg/kg/injection, schedule: Q01DX005 (ip), vehicle: saline with Tween-80
[5] = dose: 60.0 mg/kg/injection, schedule: Q01DX005 (ip), vehicle: Klucel (hydroxypropylcellulose) (HPC)
[6] = dose: 120.0 mg/kg/injection, schedule: Q01DX005 (ip), vehicle: Klucel (hydroxypropylcellulose) (HPC)
[7] = dose: 240.0 mg/kg/injection, schedule: Q01DX005 (ip), vehicle: Klucel (hydroxypropylcellulose) (HPC)
[8] = dose: 12.5 mg/kg/injection, schedule: Q01DX009 (ip), vehicle: saline with Tween-80
[9] = dose: 25.0 mg/kg/injection, schedule: Q01DX009 (ip), vehicle: saline with Tween-80
[10] = dose: 50.0 mg/kg/injection, schedule: Q01DX009 (ip), vehicle: saline with Tween-80
[11] = dose: 100.0 mg/kg/injection, schedule: Q04DX003 (ip), vehicle: saline with Tween-80
[12] = dose: 100.0 mg/kg/injection, schedule: Q01DX009 (ip), vehicle: saline with Tween-80
[13] = dose: 200.0 mg/kg/injection, schedule: Q01DX009 (ip), vehicle: saline with Tween-80
[14] = dose: 50.0 mg/kg/injection, schedule: Q01DX005 (ip), vehicle: Klucel (hydroxypropylcellulose) (HPC)
[15] = dose: 100.0 mg/kg/injection, schedule: Q01DX005 (ip), vehicle: Klucel (hydroxypropylcellulose) (HPC)
[16] = dose: 200.0 mg/kg/injection, schedule: Q01DX005 (ip), vehicle: Klucel (hydroxypropylcellulose) (HPC)
[17] = dose: 100.0 mg/kg/injection, schedule: Q04DX002 (ip), vehicle: Klucel (hydroxypropylcellulose) (HPC)
[18] = dose: 200.0 mg/kg/injection, schedule: Q04DX002 (ip), vehicle: Klucel (hydroxypropylcellulose) (HPC)

Structure (SMILES): C/C([O-])=c1\c(C)nn2ccc[n+]12
- T/C [1]: 100 % of control
- T/C [2]: 108 % of control
- T/C [3]: 96 % of control
- T/C [4]: 99 % of control

Structure (SMILES): Cc1cc(Cl)nc2nc(Cl)ccc12
- T/C [2]: 101 % of control
- T/C [3]: 93 % of control

Structure (SMILES): O=C1CP(=O)(O)CC2=C1CCC2
- T/C (dose: 25.0 mg/kg/injection, schedule: Q01DX009 (ip), vehicle: saline): 96 % of control
- T/C (dose: 50.0 mg/kg/injection, schedule: Q01DX009 (ip), vehicle: saline): 96 % of control
- T/C (dose: 100.0 mg/kg/injection, schedule: Q01DX009 (ip), vehicle: saline): 100 % of control

Structure (SMILES): CCOC(=O)C1=C(C(=O)C(C)(C)C)C(c2ccc([N+](=O)[O-])cc2)C(C(=O)C(C)(C)C)=C(C(=O)OCC)N1
- T/C [5]: 103 % of control
- T/C [6]: 94 % of control
- T/C [7]: 103 % of control

Structure (SMILES): CC(C)(C)OC(=O)NC(CCCCNC=O)C(=O)O (stereo unspecified)
- T/C [2]: 95 % of control
- T/C [3]: 96 % of control
- T/C [4]: 104 % of control

Structure (SMILES): Cc1cc2c(c3c1C(=O)CC3)C(C)(C)CCC2(C)C
- T/C [2]: 99 % of control
- T/C [3]: 97 % of control
- T/C [4]: 95 % of control

Structure (SMILES): O=[N+]([O-])c1ccccc1O
- T/C [8]: 109 % of control
- T/C [9]: 113 % of control
- T/C [10]: 109 % of control
- T/C [11]: 105 % of control
- T/C (dose: 200.0 mg/kg/injection, schedule: Q04DX003 (ip), vehicle: saline with Tween-80): 110 % of control
- T/C (dose: 400.0 mg/kg/injection, schedule: Q04DX003 (ip), vehicle: saline with Tween-80): 105 % of control

Structure (SMILES): O/N=C1\CCCCC1C(O)c1c(Cl)cccc1Cl (stereo unspecified)
- T/C [10]: 102 % of control
- T/C [12]: 103 % of control
- T/C [13]: 96 % of control

Structure (SMILES): C[As+](C)(C)SCCO
- T/C (dose: 100.0 mg/kg/injection, schedule: Q04DX002 (ip), vehicle: saline): 98 % of control
- T/C (dose: 200.0 mg/kg/injection, schedule: Q04DX002 (ip), vehicle: saline): 95 % of control
- T/C (dose: 400.0 mg/kg/injection, schedule: Q04DX002 (ip), vehicle: saline): 95 % of control

Structure (SMILES): OCC1OC(n2cnc3c(=S)nc[nH]c32)C(O)C1O (stereo unspecified)
- T/C (dose: 25.0 mg/kg/injection, schedule: Q01DX009 (ip), vehicle: saline sonified): 95 % of control
- T/C (dose: 50.0 mg/kg/injection, schedule: Q01DX009 (ip), vehicle: saline sonified): 100 % of control
- T/C (dose: 100.0 mg/kg/injection, schedule: Q01DX009 (ip), vehicle: saline sonified): 100 % of control
- T/C [12]: 100 % of control
- T/C [13]: 100 % of control
- T/C (dose: 400.0 mg/kg/injection, schedule: Q01DX009 (ip), vehicle: saline with Tween-80): 95 % of control
- T/C (dose: 800.0 mg/kg/injection, schedule: Q01DX009 (ip), vehicle: saline with Tween-80): 109 % of control

Structure (SMILES): C=CCC1(OC(C)=O)CC2C(=O)C(=O)C(C1)N2OC(=O)c1ccccc1 (stereo unspecified)
- T/C [14]: 100 % of control
- T/C [15]: 87 % of control
- T/C [16]: 94 % of control

Structure (SMILES): CC1CCN(C(=O)c2nc3ccccc3[nH]2)CC1
- T/C [14]: 102 % of control
- T/C [15]: 103 % of control
- T/C [16]: 107 % of control

Structure (SMILES): O=C(NC(=S)c1cccs1)Nc1ccccc1
- T/C (dose: 4.0 mg/kg/injection, schedule: Q01DX009 (ip), vehicle: saline with Tween-80): 89 % of control
- T/C (dose: 8.0 mg/kg/injection, schedule: Q01DX009 (ip), vehicle: saline with Tween-80): 94 % of control
- T/C (dose: 16.0 mg/kg/injection, schedule: Q01DX009 (ip), vehicle: saline with Tween-80): 87 % of control
- T/C [10]: 89 % of control
- T/C [12]: 100 % of control

Structure (SMILES): O=C(O)CCCNC1=CC(=O)c2ccccc2C1=O
- T/C (dose: 25.0 mg/kg/injection, schedule: Q04DX003 (ip), vehicle: saline with Tween-80): 101 % of control
- T/C (dose: 50.0 mg/kg/injection, schedule: Q04DX003 (ip), vehicle: saline with Tween-80): 104 % of control
- T/C [11]: 102 % of control and 86 % of control

Structure (SMILES): Nc1nnc2nc(C(C(=O)c3ccc(F)cc3)c3nc4nnc(N)n4[nH]c3=O)c(=O)[nH]n12
- T/C [2]: 98 % of control
- T/C [3]: 92 % of control
- T/C [4]: 91 % of control

Structure (SMILES): CCNC(=O)CCC(NS(=O)(=O)c1ccccc1)C(=O)O (stereo unspecified)
- T/C [17]: 103 % of control
- T/C [18]: 97 % of control
- T/C (dose: 400.0 mg/kg/injection, schedule: Q04DX002 (ip), vehicle: Klucel (hydroxypropylcellulose) (HPC)): 96 % of control

Structure (SMILES): CC1NC(C)N2C(C)N12 (stereo unspecified)
- T/C (dose: 25.0 mg/kg/injection, schedule: Q01DX001 (ip), vehicle: saline): 105 % of control
- T/C (dose: 50.0 mg/kg/injection, schedule: Q01DX001 (ip), vehicle: saline): 104 % of control
- T/C (dose: 100.0 mg/kg/injection, schedule: Q01DX001 (ip), vehicle: saline): 104 % of control

Structure (SMILES): C/C(=N/NC(N)=S)c1ccc2ccccc2c1
- T/C (dose: 0.75 mg/kg/injection, schedule: Q01DX009 (ip), vehicle: saline with Tween-80): 109 % of control
- T/C (dose: 1.5 mg/kg/injection, schedule: Q01DX009 (ip), vehicle: saline with Tween-80): 110 % of control
- T/C (dose: 3.0 mg/kg/injection, schedule: Q01DX009 (ip), vehicle: saline with Tween-80): 108 % of control
- T/C (dose: 5.33 mg/kg/injection, schedule: Q01DX009 (ip), vehicle: saline with Tween-80): 117 % of control
- T/C (dose: 6.0 mg/kg/injection, schedule: Q01DX009 (ip), vehicle: saline with Tween-80): 121 % of control

Structure (SMILES): O=C1c2ccccc2C(=Nc2ccccc2)c2c1c(O)n(-c1ccccc1)c2O
- T/C [14]: 97 % of control
- T/C [15]: 91 % of control
- T/C [16]: 96 % of control

Structure (SMILES): CCN(CC)c1ccc(N=Nc2ccc(Br)cn2)c(O)c1
- T/C (dose: 60.0 mg/kg/injection, schedule: Q01DX005 (ip), vehicle: Klucel + Tween-80): 104 % of control
- T/C (dose: 120.0 mg/kg/injection, schedule: Q01DX005 (ip), vehicle: Klucel + Tween-80): 95 % of control
- T/C (dose: 240.0 mg/kg/injection, schedule: Q01DX005 (ip), vehicle: Klucel + Tween-80): 92 % of control

Structure (SMILES): Nc1nc(N)c2c(n1)NCN(O)C2
- T/C [2]: 97 % of control
- T/C [3]: 99 % of control
- T/C [4]: 100 % of control

Structure (SMILES): O=NN(c1cccc(C(F)(F)F)c1)c1ccccn1
- T/C (dose: 25.0 mg/kg/injection, schedule: Q01DX009 (ip), vehicle: other): 100 % of control
- T/C (dose: 50.0 mg/kg/injection, schedule: Q01DX009 (ip), vehicle: other): 108 % of control
- T/C (dose: 100.0 mg/kg/injection, schedule: Q01DX009 (ip), vehicle: other): 106 % of control
- T/C (dose: 200.0 mg/kg/injection, schedule: Q01DX009 (ip), vehicle: other): 104 % of control
- T/C (dose: 400.0 mg/kg/injection, schedule: Q01DX009 (ip), vehicle: other): 108 % of control

Structure (SMILES): CC1CC(=O)CCC2(C)C(OC(C)(C)C)CCC12 (stereo unspecified)
- T/C [14]: 100 % of control
- T/C [15]: 99 % of control
- T/C [16]: 99 % of control

Structure (SMILES): Cc1ccccc1-n1c(=S)n(-c2ccc(Cl)cc2)c2nc3ccccc3nc1/c2=N/Nc1ccccc1
- T/C (dose: 12.5 mg/kg/injection, schedule: Q01DX005 (ip), vehicle: saline with Tween-80): 95 % of control
- T/C [1]: 96 % of control
- T/C [2]: 94 % of control

Structure (SMILES): C/C=C(\C)C(=O)Nc1c(C)cccc1Cl
- T/C [17]: 106 % of control
- T/C [18]: 104 % of control

Structure (SMILES): CC(=O)OCC1OC([S-])C(OC(C)=O)C(OC(C)=O)C1OC(C)=O.CC[PH+](CC)CC.CC[PH+](CC)CC.[Au].[Au] (stereo unspecified)
- T/C (dose: 5.0 mg/kg/injection, schedule: Q01DX009 (ip), vehicle: Klucel (hydroxypropylcellulose) (HPC)): 121 % of control
- T/C (dose: 10.0 mg/kg/injection, schedule: Q01DX009 (ip), vehicle: Klucel (hydroxypropylcellulose) (HPC)): 163 % of control

Structure (SMILES): CC(=O)CC(=O)C1C(S[As](C)C)CC2C3CCC4=CC(=O)C=CC4(C)C3C(=O)CC21C (stereo unspecified)
- T/C [14]: 102 % of control
- T/C [15]: 91 % of control and 94 % of control
- T/C [16]: 94 % of control and 98 % of control

Structure (SMILES): CN1CCC(CN2c3ccccc3Sc3ccccc32)C1 (stereo unspecified)
- T/C [8]: 104 % of control
- T/C [9]: 107 % of control
- T/C [10]: 116 % of control

Structure (SMILES): O=c1oc2ccccc2c2c1cnn2-c1ccccc1
- T/C [5]: 103 % of control
- T/C [6]: 105 % of control
- T/C [7]: 104 % of control

Structure (SMILES): Cc1csc2n/c(=N/[N+](=O)[O-])sn12
- T/C (dose: 60.0 mg/kg/injection, schedule: Q01DX005 (ip), vehicle: saline with Tween-80): 92 % of control
- T/C (dose: 120.0 mg/kg/injection, schedule: Q01DX005 (ip), vehicle: saline with Tween-80): 103 % of control
- T/C (dose: 240.0 mg/kg/injection, schedule: Q01DX005 (ip), vehicle: saline with Tween-80): 120 % of control
